In paper PMC9032561, “Simultaneous Inhibitory Effects of All-Trans Astaxanthin on Acetylcholinesterase and Oxidative Stress” (Marine Drugs, 2022):

Molecular target: T1, acetylcholinesterase (Electrophorus electricus, UniProt O42275)
T1 construct: gene ache
Assay: Ellman assay with Lineweaver-Burk kinetics; supported by fluorescence quenching and circular dichroism
Assay type: biochemical

T1 sequence (O42275 24-633): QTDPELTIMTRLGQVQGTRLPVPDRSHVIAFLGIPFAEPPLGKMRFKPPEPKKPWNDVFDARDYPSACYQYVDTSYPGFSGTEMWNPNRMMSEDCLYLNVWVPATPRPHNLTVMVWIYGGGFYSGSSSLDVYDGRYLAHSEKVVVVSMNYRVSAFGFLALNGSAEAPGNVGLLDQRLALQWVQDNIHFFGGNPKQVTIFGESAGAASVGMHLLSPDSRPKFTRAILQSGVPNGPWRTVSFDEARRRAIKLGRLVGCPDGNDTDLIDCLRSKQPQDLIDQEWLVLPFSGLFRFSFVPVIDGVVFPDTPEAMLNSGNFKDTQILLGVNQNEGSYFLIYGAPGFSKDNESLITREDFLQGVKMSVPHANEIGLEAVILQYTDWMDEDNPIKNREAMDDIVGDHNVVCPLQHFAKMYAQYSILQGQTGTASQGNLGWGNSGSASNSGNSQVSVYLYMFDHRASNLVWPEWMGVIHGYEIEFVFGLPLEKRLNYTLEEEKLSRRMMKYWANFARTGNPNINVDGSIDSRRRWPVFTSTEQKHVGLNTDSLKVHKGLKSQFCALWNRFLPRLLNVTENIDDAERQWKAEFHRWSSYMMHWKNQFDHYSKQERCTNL

CC1=C(/C=C/C(C)=C/C=C/C(C)=C/C=C/C=C(C)/C=C/C=C(C)/C=C/C2=C(C)C(=O)[C@@H](O)CC2(C)C)C(C)(C)C[C@H](O)C1=O [all-trans astaxanthin]
IC50: 8.64 µM
